Experimental data from US20230218663A1, “COMPOSITIONS AND METHODS FOR TREATING A SARS-COV-2 INFECTION” (priority 2020, published 2023).
Where two headings read alike, the source gives them in different places.

Legend:
VeroE6 cells = assay: Cell viability assay (CellTiterGlo), VeroE6; format: cell-based, African green monkey
Experimental: (§1) The CellTiterGlo® luminescent assay (Promega Corporation, Madison, Wis., USA) was performed to detect the cytotoxicity of the selected compounds as previously described^39. Briefly, VeroE6 cells (4×10^4 cells per well) and Caco2 cells (4×10^4 cells per well) were incubated with different concentrations of the individual compound in 96-well plates for 48 hrs, followed by the addition of the substrate and measurement of luminance 10 min later. Ridaura and Au(PEt3)Cl were dissolved in DMSO, and the final percentage of DMSO was kept at 1% in culture medium.

SARS-CoV-2 PL^pro [1] = biological target: T1, SARS-CoV-2 PL^pro (Severe acute respiratory syndrome coronavirus 2, UniProt P0DTD1); assay: Zinc release assay (FluoZin-3); format: binding
Experimental: The release of Zn^2+ from SARS-CoV-2 PL^pro upon bismuth drug exposure was perform by a previously described method with zinc-specific fluorophore FluoZin™-3 (Invitrogen/Life Technologies) (21). Briefly, SARS-CoV-2 PLpro (20 μM) was incubated with 0, 2, 5, 20 mol eq. Bi^3+ (as CBS), for 180 min at room temperature, followed by the addition of FluoZin-3 (1 μM) in a total reaction volume of 100 μL (50 mM Tris-HCl, pH7.4) at room temperature. Fluorescence (λex=494 nm, λem=530 nm) was detected and converted into Zn^2+ concentrations using standard curves prepared from […] under identical condition. The signals of CBS at corresponding concentrations after mixing with FluoZin™-3 were recorded for background subtraction. The assay was performed in triplicate and the results were plotted as the [Zn^2+]/[PL^pro] verse [Bi^3+]/[PL^pro].

SARS-CoV-2 M^pro [2] = biological target: T2, SARS-CoV-2 M^pro (Severe acute respiratory syndrome coronavirus 2, UniProt P0DTD1); assay: Bi^3+ binding to M^pro (UV-vis kinetics and titration)
SARS-CoV-2 PL^pro [3] = biological target: T1, SARS-CoV-2 PL^pro; assay: Bi^3+ binding to PL^pro (UV-vis kinetics and titration)
SARS-CoV-2 M^pro [4] = biological target: T2, SARS-CoV-2 M^pro; assay: Ellman's assay of free cysteine; format: binding
Experimental: Amount of free cysteine was assayed spectrophotometrically with DTNB [5,5′-dithiobis-(2-nitrobenzoic acid)]according to a previously described method^(22). Briefly, SARS-CoV-2 M^pro (15 μM) was incubated with 0, 2, 5, 20 mol eq. […] Equal volume of DTNB (2 mM) was added to the reaction mix in a total reaction volume of 100 μL. After the incubation for 90 min, absorption of 412 nm which indicated the release of 5-thiobenzoate anion, was detected and converted into thiol concentrations using standard curves prepared with reduced glutathione (GSH) under identical condition. The assay was performed in triplicate and the results were plotted as the [free cysteine]/[M^pro] verse [Bi^3+]/[M^pro].

[5] = Chemical stability of bismuth drugs at different pH; conditions: data not shown; for effect of the thiol-containing drug on hydrolysis of CBS: acidic conditions
SARS-CoV-2 M^pro [6] = biological target: T2, SARS-CoV-2 M^pro; assay: biochemical; format: biochemical
SARS-CoV-2 [7] = format: cell-based; conditions: 24 h, 1000 µM
SARS-CoV-2 [8] = assay: Golden Syrian hamster model, oral treatment (NAC studies); format: in vivo
SARS-CoV-2 PL^pro [9] = biological target: T1, SARS-CoV-2 PL^pro; assay: PL^pro activity inhibition assay (FRET); format: biochemical
SARS-CoV-2 [10] = assay: Viral load reduction assay in VeroE6 cells; format: cell-based
Experimental: Viral load reduction assay was performed on VeroE6 and Caco2 cells, as described previously with modifications^41. Supernatant samples from the infected cells (0.1 MOI) were harvested at 48 hours post-infection (hpi) for qRT-PCR analysis of virus replication. Briefly, 100 μL of viral supernatant were lyzed with 400 μL of AVL buffer and then extracted for total RNA with the QIAamp viral RNA mini kit (Qiagen, Hilden, Germany). Real-time one-step qRT-PCR was used for quantitation of SARS-CoV-2 viral load using the QuantiNova Probe RT-PCR kit (Qiagen) with a LightCycler 480 Real-Time PCR System (Roche) as previously described^15. Each […] mixture contained 10 μL of 2×QuantiNova Probe RT-PCR Master Mix, 1.2 μL of RNase-free water, 0.2 μL of QuantiNova Probe RT-Mix, 1.6 μL each of 10 μM forward and reverse primer, 0.4 μL of 10 μM probe, and 5 μL of extracted RNA as the template. Reactions were incubated at 45° C. for 10 min for reverse transcription, 95° C. for 5 min for denaturation, followed by 45 cycles of 95° C. for 5 s and 55° C. for 30 s. Signal detection and measurement were taken in each cycle after the annealing step. The cycling profile ended with a cooling step at 40° C. for 30 s. The primers and probe sequences are against the RNA-dependent RNA polymerase/Helicase (RdRP/Hel) gene region of SARS-Cov-2 previously described^42.
Cell culture supernatants were collected at 48 hour-post-infection (hpi) for viral RNA extraction and quantitative reverse transcription-polymerase chain reaction (qRT-PCR) as previously described with modifications(13, 14). The primers and probe sequences were against the RNA-dependent RNA polymerase/Helicase (RdRP/Hel) gene region of SARS-CoV-2: forward primer: 5′-[…]-3′ (SEQ ID NO:6); reverse primer: 5′-[…]-3′(SEQ ID NO:7); specific probe: 5′-[…]-IABkFQ-3′(SEQ ID NO:8). The viral load reduction assay experiments were performed in triplicate and repeated twice for confirmation.

SARS-CoV-2 [11] = format: cell-based
Caco2 cells = assay: Cell viability assay (CellTiterGlo), Caco2; format: cell-based, human; conditions: Caco-2
Experimental: as §1

SARS-CoV-2 [12] = conditions: 0.1 MOI, 48 hpi, non-toxic concentrations
SARS-CoV-2 [13] = format: cell-based; conditions: read-out: EC50 VeroE6
pseudo-SARS-CoV-2-Luc = format: cell-based
[14] = 48 hrs incubation, concentration based on metal content, read-out: CC50 VeroE6
[15] = 0.1 MOI, 48 hpi, non-toxic concentrations

## CCP(CC)CC.[Au+].[Cl-] [Au(PEt3)Cl, chloro(triethylphosphine)gold(I)]
VeroE6 cells; [14]
  CC50: 13.5 ± 1.8 µM

## [Bi+3] [Bi^3+]
SARS-CoV-2 PL^pro [1]
  Zn^2+ released from PL^pro: ~0.78 eq.
SARS-CoV-2 M^pro [2]; absorption at 340 nm
  molar ratio [Bi3+]/[SARS-CoV-2 Mpro] at plateau: ~1
SARS-CoV-2 M^pro [2]; read-out: estimated dissociation constant (Kd), M^pro
  Kd: 0.6 µM
SARS-CoV-2 PL^pro [3]; absorption at 340 nm
  molar ratio [Bi3+]/[SARS-CoV-2 PL^pro] at plateau: ~3
SARS-CoV-2 PL^pro [3]; read-out: estimated dissociation constant (Kd), PL^pro
  Kd: 1.13 µM
SARS-CoV-2 M^pro [4]
  decrease of free cysteine in M^pro: ~1 eq.

## C[C@H](CS)C(=O)N1CCC[C@H]1C(=O)O [CPL, captopril]
[5]
  effect of the thiol-containing drug on hydrolysis of CBS: prevent hydrolysis of CBS

## N[C@@H](CCC(=O)N[C@@H](CS)C(=O)NCC(=O)O)C(=O)O [GSH, glutathione]
[5]
  effect of the thiol-containing drug on hydrolysis of CBS: prevent hydrolysis of CBS

## CC(=O)N[C@@H](CS)C(=O)O [NAC, N-acetyl cysteine]
SARS-CoV-2 M^pro [6]
  IC50: > 450 µM
  inhibition of M^pro at comparable concentrations: negligible inhibitory
SARS-CoV-2 [7]
  viral NP antigen-positive cells: 59.75%
SARS-CoV-2 [8]; H&E
  lung pathology: partially relieved lung pathology
SARS-CoV-2 [8]; oral CBS 300 mg/kg or NAC 370 mg/kg, 2 dpi
  pulmonary viral load compared with vehicle group: No statistically significant difference
SARS-CoV-2 PL^pro [9]
  IC50: > 150 µM
  inhibition of PL^pro at comparable concentrations: negligible inhibitory
SARS-CoV-2 [10]; up to 2000 μM
  anti-SARS-CoV-2 activity in Vero E6 culture supernatant: negligible anti-SARS-CoV-2 activity

## CC(C)(S)[C@@H](N)C(=O)O [PCM, penicillamine]
[5]
  effect of the thiol-containing drug on hydrolysis of CBS: prevent hydrolysis of CBS

## CC[PH](CC)(CC)[Au][S][C@@H]1O[C@H](COC(C)=O)[C@@H](OC(C)=O)[C@H](OC(C)=O)[C@H]1OC(C)=O [Ridaura, Auranofin]
VeroE6 cells; [14]
  CC50: 14.2 ± 1.3 µM

## O=C(O)c1ccccc1S [TSA, thiosalicylic acid]
[5]
  effect of the thiol-containing drug on hydrolysis of CBS: prevent hydrolysis of CBS

## Bi(TPP) (TPP: tetraphenylporphyrinate)
SARS-CoV-2 [11]; MOI=2, viral titer at 9 hpi
  effect on virus replication, drug maintained after virus entry (post-entry): functioned at post-entry stages
Caco2 cells
  CC50: > 400 µM
VeroE6 cells
  CC50: > 400 µM
SARS-CoV-2 [12]
  maximal viral load reduction in Caco2 cell culture supernatant: ~3 logs
  maximal viral load reduction in the Caco2 cell lysate: ~2 logs
SARS-CoV-2 [13]; SARS-CoV-2 plaque reduction, concentration based on metal content
  EC50: 3.9 ± 1.2 µM
SARS-CoV-2 [10]; [15]
  maximal viral load reduction in VeroE6 cell culture supernatant: ~3 logs
  maximal viral load reduction in the VeroE6 cell lysate: ~1 logs

## Bi(TPyP) (TPyP: tetra(4-pyridyl)porphyrin)
SARS-CoV-2 [11]
  effect on virus replication, drug added during pre-incubation (cells pre-treatment): significantly suppressed virus replication
  effect on virus replication, drug added during virus co-infection: significantly suppressed virus replication
  effect on virus replication, drug maintained after virus entry (post-entry): no detectable effect
pseudo-SARS-CoV-2-Luc
  percent virus entry lowered: ~53%
SARS-CoV-2 [13]
  EC50: 7.5 µM
SARS-CoV-2 [10]
  maximal viral load reduction in VeroE6 cell culture supernatant: ~3 logs
  maximal viral load reduction in the VeroE6 cell lysate: ~1 logs

## bismuth subgallate [BSG]
[5]; low pH
  stabilisation of the bismuth drug by NAC: stabilized
